Values joined by “and” are separate entries in the source; they are usually repeats but may differ in a detail not shown here. Identical values can stand only once.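 Where inhibition never reached the appropriate level, the endpoint shown equals the highest concentration tested. Otherwise, values were interpolated linearly from a five-concentration, 48-hour dose response in 96-well plates. GI50 = concentration required for 50% inhibition of growth. TGI marks complete inhibition of growth.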
Assays:
Test in all cases: NCI-60 cell line screen, 48 h
HL-60(TB) leukemia = system: HL-60(TB) leukemia
NCI-H226 lung = system: NCI-H226 lung
OVCAR-3 ovarian = system: OVCAR-3 ovarian
OVCAR-5 ovarian = system: OVCAR-5 ovarian
SF-295 CNS = system: SF-295 CNS
SF-539 CNS = system: SF-539 CNS
SNB-19 CNS = system: SNB-19 CNS
U251 CNS = system: U251 CNS
BT-549 breast = system: BT-549 breast
DU-145 prostate = system: DU-145 prostate

Row | SMILES | TGI (HL-60(TB) leukemia) [µM] | TGI (NCI-H226 lung) [µM] | TGI (OVCAR-3 ovarian) | TGI (OVCAR-5 ovarian) | TGI (SF-295 CNS) | TGI (SF-539 CNS) | TGI (SNB-19 CNS) | TGI (U251 CNS) | TGI (BT-549 breast) [µM] | GI50 (DU-145 prostate) [µM] | TGI (DU-145 prostate) | GI50 (NCI-H226 lung) [µM] | GI50 (OVCAR-3 ovarian) [µM] | GI50 (OVCAR-5 ovarian) [µM] | GI50 (SF-295 CNS) [µM] | GI50 (SF-539 CNS) [µM] | GI50 (SNB-19 CNS) [µM] | GI50 (U251 CNS) [µM] | GI50 (BT-549 breast) [µM]
1 | CN(C)CCN(C)CC1COC(C)(C)O1 (centres undefined) | > 100 | > 100 | > 100 µM | > 100 µM | > 100 µM | > 100 µM | > 100 µM | > 100 µM | – | – | – | – | – | – | – | – | – | – | –
2 | S=C(N/N=C(/c1ccccc1)c1ccccn1)N1CCCCC1 | – | – | 1.88 µM and 1.39 µM | 2.49 µM and 2.11 µM | 1.75 µM and 2.11 µM | 1.85 µM and 2.09 µM | 2.9 µM and 5.49 µM | 1.45 µM and 1.76 µM | 2.53 | 1.11 | 2.32 µM and 2.87 µM | 0.00148 | < 0.001 | < 0.001 | 0.188 | 0.265 | 1.1 | < 0.001 | –
3 | Cc1noc2cccc(OCc3ccccc3)c12 | > 100 | > 100 | > 100 µM | > 100 µM | > 100 µM | > 100 µM | > 100 µM | > 100 µM | – | – | – | – | – | – | – | – | – | – | –
4 | CCN(CC)CCCn1cnc2ncccc2c1=O | – | > 100 | > 100 µM | > 100 µM | > 100 µM | > 100 µM | > 100 µM | > 100 µM | – | – | – | – | – | – | – | – | – | – | –
5 | Cc1oc2c(C)c3oc(=O)cc(C)c3cc2c1CNC(=O)[C@@H]1OCCOCCOCCOCCOCCOC1C(=O)O (some centres undefined) | > 100 | > 100 | > 100 µM | > 100 µM | > 100 µM | > 100 µM | > 100 µM | > 100 µM | – | – | – | – | – | – | – | – | – | – | –
6 | O=C(O)C1=CCCc2ccc3ccccc3c21 | – | > 100 | > 100 µM | > 100 µM | > 100 µM | > 100 µM | > 100 µM | > 100 µM | – | – | – | – | – | – | – | – | – | – | –
7 | Cc1ccccc1C1=[N+]([O-])c2ccccc2C1=O | 28.9 | 30.7 | 25.2 µM | 43.1 µM | 44.9 µM | 33.7 µM | > 100 µM | 31 µM | – | – | – | – | – | – | – | – | – | – | –
8 | N#CC(C(=O)/C(=N/NC(=O)c1ccccc1O)C(C#N)c1ccccc1)c1ccccc1 (centres undefined) | – | > 100 | > 100 µM | – | > 100 µM | > 100 µM | – | > 100 µM | – | – | – | – | – | – | – | – | – | – | –
9 | COC(c1cccc(C(O)(C(F)(F)F)C(F)(F)F)c1)(C(F)(F)F)C(F)(F)F | – | 37.8 | 38 µM | 32.4 µM | 30.2 µM | 33.3 µM | 34.5 µM | 33.9 µM | – | – | – | – | – | – | – | – | – | – | –
10 | CC(=O)CCc1ccc(OC2OC(COC(=O)c3cc(O)c(O)c(O)c3)C(O)C(O)C2OC(=O)/C=C/c2ccccc2)cc1 (centres undefined) | – | 37 | 72.4 µM | 32.1 µM | 52.2 µM | 44.8 µM | 49.7 µM | 30.1 µM | 64.6 | 23.5 | 42.8 µM | 16.9 | 23.8 | 15.6 | 24.5 | 26.4 | 18.4 | 11.9 | 35.6
11 | COC(=O)C1CCC(Nc2ccc(C)cc2C)=N1 (centres undefined) | > 100 | > 100 | > 100 µM | > 100 µM | > 100 µM | – | > 100 µM | > 100 µM | – | – | – | – | – | – | – | – | – | – | –

From PubChem BioAssay (NCI)
